Results taken from patent US20170007615A1, “Antibacterial Compounds” (priority 2014, published 2017).
In brackets after ≈: the same amount, converted by molar mass. Read-outs that look alike come from different tables or passages of the source. Positions of bridges follow the written chain, without caps; N, C: chain ends. Non-standard residues stand in square brackets, D forms with d. Residues, ends and D or L forms follow the SMILES beside them. *: point of attachment. Ileψ(thiazoline)Cys = CC[C@H](C)[C@H](N)C1=N[C@H](C(=O)*)CS1; dOrn = NCCC[C@@H](N)C(=O)O

Experiments:
[1] = test system: E. coli (ATCC 25922); conditions: for MIC of Compound (μg/ml) in the presence of PMBN (32 μg/ml): (b) No significant effect; for MIC of Compound (μg/ml) in the presence of PMBN (128 μg/ml): Table 1, (b) No effect
[2] = test system: E. coli (ATCC 25922); assay: microbe, parasite or virus in culture; conditions: Escherichia coli
[3] = ATCC25922, read-out: MIC Compound alone, Table 12
[4] = ATCC25922, read-out: MIC Compound alone, Table 1

| MIC of Compound (μg/ml) in the presence of PMBN (32 μg/ml) ([1]; Table 12) | MIC [2, 3] [µg/mL] | MIC of Compound (μg/ml) in the presence of PMBN (128 μg/ml) [1] | MIC [2, 4] [µg/mL] | Compound | other results |
| --- | --- | --- | --- | --- | --- |
| – | – | 0.12 µg/mL | > 64 | CCNC(=O)Nc1nc2cc(-c3cnc(NC(=O)N4CC[C@@H](O)C4)nc3)cc(-c3ccc(C)cn3)c2s1 [Compound A-1, (3R)—N-[5-[2-(Ethylcarbamoylamino)-7-(5-methyl-2-pyridyl)-1,3-benzothiazol-5-yl]pyrimidin-2-yl]-3-hydroxy-pyrrolidine-1-carboxamide] | – |
| – | – | <=.12 μg/ml | > 64 | CCNC(=O)Nc1nc2cc(-c3cc(C)n(Cc4cccc(C)n4)c(=O)c3)cc(-c3ccccn3)c2s1 [Compound A-2, 1-Ethyl-3-[5-[2-methyl-1-[(6-methyl-2-pyridyl)methyl]-6-oxo-4-pyridyl]-7-(2-pyridyl)-1,3-benzothiazol-2-yl]urea] | – |
| – | – | <=1 μg/ml | > 64 | CCNC(=O)Nc1nc2cc(-n3cnc(C)c3)cc(-c3ccccn3)c2s1 [Compound A-3, 1-Ethyl-3-[5-(4-methylimidazol-1-yl)-7-(2-pyridyl)-1,3-benzothiazol-2-yl]urea] | MIC of Compound (μg/ml) in the presence of Colistin (1 μg/ml) ([1]; Table 2, colistin sub-inhibitory): ≦1 μg/ml; MIC of Compound (μg/ml) in the presence of PMB (0.5 μg/ml) ([1]; Table 3, PMB sub-inhibitory): ≦1 μg/ml; MIC ([2]; ATCC25922, read-out: MIC Compound alone, Table 2): > 64 µg/mL; MIC ([2]; ATCC25922, read-out: MIC Compound alone, Table 3): > 64 µg/mL |
| – | – | 0.5 µg/mL | > 64 | CCNC(=O)Nc1nc2cc(-c3cc(C)n(C(C)c4ccc(C)nc4)c(=O)c3)cc(-c3ccccn3)c2s1 (centres unmarked) [Compound A-4, 1-Ethyl-3-[5-[2-methyl-1-[1-(6-methyl-3-pyridyl)ethyl]-6-oxo-4-pyridyl]-7-(2-pyridyl)-1,3-benzothiazol-2-yl]urea] | – |

Further lines, the compound ahead of its results:

| Compound | MIC of Compound (μg/ml) in the presence of PMBN (32 μg/ml) ([1]; Table 12) | MIC [2, 3] [µg/mL] | MIC of Compound (μg/ml) in the presence of PMBN (128 μg/ml) [1] | MIC [2, 4] [µg/mL] | other results |
| --- | --- | --- | --- | --- | --- |
| CC1(C)S[C@@H]2[C@H](NC(=O)[C@H](N)c3ccc(O)cc3)C(=O)N2[C@H]1C(=O)O [Amoxicillin, reference compound] | 8 µg/mL | 32 (≈ 87.6 µM) | – | – | – |
| CC[C@H](C)[C@H](N)C1=N[C@H](C(=O)N[C@@H](CC(C)C)C(=O)N[C@H](CCC(=O)O)C(=O)N[C@H](C(=O)N[C@H]2CCCCNC(=O)[C@H](CC(N)=O)NC(=O)[C@@H](CC(=O)O)NC(=O)[C@H](Cc3cnc[nH]3)NC(=O)[C@@H](Cc3ccccc3)NC(=O)[C@H]([C@@H](C)CC)NC(=O)[C@@H](CCCN)NC2=O)[C@@H](C)CC)CS1 [Bacitracin, reference compound] ({Ileψ(thiazoline)Cys}-L[dE]IK[dOrn]I[dF]H[dD]N; lactam 4-C) | >64^(b) μg/ml | – | – | – | MIC Compound alone ([1]; ATCC 25922): >64 µg/mL |
| CC1(C)S[C@@H]2[C@H](NC(=O)C(C(=O)O)c3ccccc3)C(=O)N2[C@H]1C(=O)O (some centres unmarked) [Carbenicillin, reference compound] | 32^(b) μg/ml | 64 (≈ 169 µM) | – | – | – |
| CC(C)(O/N=C(\C(=O)N[C@@H]1C(=O)N2C(C(=O)[O-])=C(C[n+]3ccccc3)CS[C@H]12)c1csc(N)n1)C(=O)O [Ceftazidime, reference compound] | 0.15 µg/mL | 0.6 (≈ 1.1 µM) | – | – | – |
| CO/N=C(\C(=O)N[C@@H]1C(=O)N2C(C(=O)O)=C(CSc3nc(=O)c(=O)[nH]n3C)CS[C@H]12)c1csc(N)n1 [Ceftriaxone, reference compound] | 0.06^(b) μg/ml | 0.06 (≈ 0.108 µM) | – | – | – |
| O=C(N[C@H](CO)[C@H](O)c1ccc([N+](=O)[O-])cc1)C(Cl)Cl [Chloramphenicol, reference compound] | 1 µg/mL | 4 (≈ 12.4 µM) | – | – | – |
| CN(C)c1cc(NC(=O)CNC(C)(C)C)c(O)c2c1C[C@H]1C[C@H]3[C@H](N(C)C)C(O)=C(C(N)=O)C(=O)[C@@]3(O)C(O)=C1C2=O [Tigecyclin, reference compound] | ≦0.25^(b) μg/ml | – | – | – | MIC Compound alone ([1]; Table 12): ≦0.25 μg/ml |
| Gentamicin [reference compound] | 8^(b) μg/ml | – | – | – | MIC Compound alone ([1]; Table 12): 8 µg/mL |
| Polymyxin B [PMB, reference compound] | – | – | – | – | MIC PMB alone ([1]; Table 3): 1 µg/mL |
